In ChEMBL document CHEMBL5696442, “Discovery of type II inhibitors of TGFβ-activated kinase 1 (TAK1) and mitogen-activated protein kinase kinase kinase kinase 2 (MAP4K2)” (J Med Chem, 2015):
Activity calls are given as the source filed them. The rule behind the calls is not given here.

Experiments:
[1] = molecular target: Ribosomal protein S6 kinase alpha-3 (Homo sapiens) (UniProt P51812); test: Inhibition of RSK2 domain 1 Lys2 labeling site harbouring DLKPENILLDEEGHIKLTDFGLSK in human Huh-7 cell lysate at 1 uM by KiNativ Profiling analysis relative to control; type: subcellular
[2] = molecular target: T1, Serine/threonine-protein kinase Sgk3 (Homo sapiens) (UniProt Q96BR1); test: Inhibition of SGK3 Lys1 labeling site in human Huh-7 cell lysate at 1 uM by KiNativ Profiling analysis relative to control; type: subcellular
T1 sequence (whole entry): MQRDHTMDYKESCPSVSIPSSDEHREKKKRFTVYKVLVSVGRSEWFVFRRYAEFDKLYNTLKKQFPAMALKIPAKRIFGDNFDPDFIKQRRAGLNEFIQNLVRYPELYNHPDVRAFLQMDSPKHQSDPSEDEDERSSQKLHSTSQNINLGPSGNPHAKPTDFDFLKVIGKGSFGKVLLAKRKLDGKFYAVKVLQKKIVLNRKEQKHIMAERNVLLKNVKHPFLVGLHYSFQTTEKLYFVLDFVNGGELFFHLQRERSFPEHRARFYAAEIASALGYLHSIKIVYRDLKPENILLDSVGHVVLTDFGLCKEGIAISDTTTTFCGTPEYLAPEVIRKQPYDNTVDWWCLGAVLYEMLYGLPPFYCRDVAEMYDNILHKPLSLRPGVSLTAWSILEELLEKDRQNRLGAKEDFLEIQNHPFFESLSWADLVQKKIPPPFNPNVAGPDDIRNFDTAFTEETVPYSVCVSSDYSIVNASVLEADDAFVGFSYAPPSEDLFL

[3] = molecular target: T2, Serine/threonine-protein kinase Nek9 (Homo sapiens) (UniProt Q8TD19); test: Inhibition of NEK9 Lys2 labeling site in human Huh-7 cells at 1 uM by KiNativ Profiling analysis relative to control; type: cell-based
T2 sequence (whole entry): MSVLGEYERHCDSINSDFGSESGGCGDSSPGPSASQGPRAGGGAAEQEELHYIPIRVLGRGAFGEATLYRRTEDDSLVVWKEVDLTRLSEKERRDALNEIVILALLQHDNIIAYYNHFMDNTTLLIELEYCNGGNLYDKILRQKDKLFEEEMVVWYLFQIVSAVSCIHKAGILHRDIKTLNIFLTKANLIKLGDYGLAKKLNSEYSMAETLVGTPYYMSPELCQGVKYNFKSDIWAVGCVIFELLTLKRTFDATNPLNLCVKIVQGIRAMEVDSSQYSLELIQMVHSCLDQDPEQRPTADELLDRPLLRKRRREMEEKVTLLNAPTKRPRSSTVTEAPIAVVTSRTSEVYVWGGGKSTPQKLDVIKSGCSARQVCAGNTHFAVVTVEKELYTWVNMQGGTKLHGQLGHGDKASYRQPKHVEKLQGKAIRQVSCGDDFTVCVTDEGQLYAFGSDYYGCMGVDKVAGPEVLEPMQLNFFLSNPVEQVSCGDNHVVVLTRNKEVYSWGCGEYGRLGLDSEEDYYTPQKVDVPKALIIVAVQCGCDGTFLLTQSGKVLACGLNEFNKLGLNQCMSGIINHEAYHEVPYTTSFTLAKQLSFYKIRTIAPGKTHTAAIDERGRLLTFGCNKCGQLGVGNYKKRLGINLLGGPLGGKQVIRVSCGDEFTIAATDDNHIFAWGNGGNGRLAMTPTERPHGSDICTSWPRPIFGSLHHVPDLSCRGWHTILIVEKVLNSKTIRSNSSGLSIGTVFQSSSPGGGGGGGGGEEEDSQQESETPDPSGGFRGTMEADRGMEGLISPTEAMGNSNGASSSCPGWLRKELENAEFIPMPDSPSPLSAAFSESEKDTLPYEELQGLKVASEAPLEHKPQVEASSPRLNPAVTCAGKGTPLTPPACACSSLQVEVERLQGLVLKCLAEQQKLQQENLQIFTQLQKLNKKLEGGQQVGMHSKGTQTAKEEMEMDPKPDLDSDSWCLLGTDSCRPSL

[4] = molecular target: Ephrin type-A receptor 5 (Homo sapiens) (UniProt P54756); test: Inhibition of EPHA5 (unknown origin) at 1 uM by Ambit Kinomescan binding assay relative to control
[5] = molecular target: Serine/threonine-protein kinase MARK2 (Homo sapiens) (UniProt Q7KZI7); test: Inhibition of MARK2 (unknown origin) at 1 uM by Ambit Kinomescan binding assay relative to control
[6] = tested on: Phosphatidylinositol 4,5-bisphosphate 3-kinase catalytic subunit alpha isoform (Homo sapiens), P42336 [H1047Y]; test: Inhibition of PIK3CA H1047Y mutant (unknown origin) at 1 uM by Ambit Kinomescan binding assay relative to control
[7] = molecular target: Serine/threonine-protein kinase 32C (Homo sapiens) (UniProt Q86UX6); test: Inhibition of YANK3 Lys2 labeling site in human A-375 cells at 0.5 uM by KiNativ Profiling analysis relative to control; type: cell-based
[8] = molecular target: Cyclin-dependent kinase 6 (Homo sapiens) (UniProt Q00534); test: Inhibition of CDK6 Lys2 labeling site in human A-375 cells at 0.05 uM by KiNativ Profiling analysis relative to control; type: cell-based
[9] = molecular target: Serine/threonine-protein kinase 16 (Homo sapiens) (UniProt O75716); test: Inhibition of MPSK1 Lys2 labeling site in human A-375 cells at 0.05 uM by KiNativ Profiling analysis relative to control; type: cell-based
[10] = molecular target: Cyclin-G-associated kinase (Homo sapiens) (UniProt O14976); test: Inhibition of GAK (unknown origin) at 10 uM by Ambit Kinomescan binding assay relative to control
[11] = molecular target: MAP kinase-interacting serine/threonine-protein kinase 2 (Homo sapiens) (UniProt Q9HBH9); test: Inhibition of MKNK2 (unknown origin) at 10 uM by Ambit Kinomescan binding assay relative to control
[12] = molecular target: Cyclin-dependent kinase 7 (Homo sapiens) (UniProt P50613); test: Inhibition of CDK7 K2 labeling site in human Huh-7 cells at 1 uM by KiNativ Profiling analysis relative to control; type: cell-based
[13] = molecular target: Mitogen-activated protein kinase 11 (Homo sapiens) (UniProt Q15759); test: Inhibition of p38beta (unknown origin) at 10 uM by Ambit Kinomescan binding assay relative to control; values are per cent of control

Sequence of Cyclin-dependent kinase 7 (Homo sapiens) (P50613 whole entry): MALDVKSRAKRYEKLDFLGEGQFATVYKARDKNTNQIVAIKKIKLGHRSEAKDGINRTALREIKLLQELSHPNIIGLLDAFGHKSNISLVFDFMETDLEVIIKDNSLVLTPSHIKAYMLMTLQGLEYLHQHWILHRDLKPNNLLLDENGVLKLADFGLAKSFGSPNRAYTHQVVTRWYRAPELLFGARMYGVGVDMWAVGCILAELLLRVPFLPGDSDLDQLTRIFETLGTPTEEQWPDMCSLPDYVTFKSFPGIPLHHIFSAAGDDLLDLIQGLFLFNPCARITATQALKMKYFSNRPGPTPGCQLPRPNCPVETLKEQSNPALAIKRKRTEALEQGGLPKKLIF
Sequence of MAP kinase-interacting serine/threonine-protein kinase 2 (Homo sapiens) (Q9HBH9 whole entry, looked up): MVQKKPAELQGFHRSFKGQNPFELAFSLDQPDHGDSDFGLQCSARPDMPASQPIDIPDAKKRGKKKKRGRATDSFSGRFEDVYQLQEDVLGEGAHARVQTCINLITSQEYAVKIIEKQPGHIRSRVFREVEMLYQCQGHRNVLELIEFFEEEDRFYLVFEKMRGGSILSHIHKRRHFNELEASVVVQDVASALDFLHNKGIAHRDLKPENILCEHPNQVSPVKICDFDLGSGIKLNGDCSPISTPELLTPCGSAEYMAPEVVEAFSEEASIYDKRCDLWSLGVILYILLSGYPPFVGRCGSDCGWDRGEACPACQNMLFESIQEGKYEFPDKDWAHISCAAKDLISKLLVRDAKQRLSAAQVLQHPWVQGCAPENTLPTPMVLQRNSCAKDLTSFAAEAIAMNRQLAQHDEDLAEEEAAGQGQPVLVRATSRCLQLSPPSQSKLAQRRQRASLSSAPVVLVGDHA
Sequence of Cyclin-dependent kinase 6 (Homo sapiens) (Q00534 whole entry): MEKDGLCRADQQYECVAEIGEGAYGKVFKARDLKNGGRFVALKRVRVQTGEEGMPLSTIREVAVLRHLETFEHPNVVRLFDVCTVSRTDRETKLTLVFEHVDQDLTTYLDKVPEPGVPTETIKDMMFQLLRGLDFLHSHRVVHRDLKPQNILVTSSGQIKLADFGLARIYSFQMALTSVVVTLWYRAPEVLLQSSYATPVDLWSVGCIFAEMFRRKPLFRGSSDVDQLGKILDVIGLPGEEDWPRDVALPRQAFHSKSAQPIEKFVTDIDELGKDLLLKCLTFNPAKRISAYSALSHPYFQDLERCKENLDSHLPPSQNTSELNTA
Sequence of Ribosomal protein S6 kinase alpha-3 (Homo sapiens) (P51812 whole entry, the tested form may be a part): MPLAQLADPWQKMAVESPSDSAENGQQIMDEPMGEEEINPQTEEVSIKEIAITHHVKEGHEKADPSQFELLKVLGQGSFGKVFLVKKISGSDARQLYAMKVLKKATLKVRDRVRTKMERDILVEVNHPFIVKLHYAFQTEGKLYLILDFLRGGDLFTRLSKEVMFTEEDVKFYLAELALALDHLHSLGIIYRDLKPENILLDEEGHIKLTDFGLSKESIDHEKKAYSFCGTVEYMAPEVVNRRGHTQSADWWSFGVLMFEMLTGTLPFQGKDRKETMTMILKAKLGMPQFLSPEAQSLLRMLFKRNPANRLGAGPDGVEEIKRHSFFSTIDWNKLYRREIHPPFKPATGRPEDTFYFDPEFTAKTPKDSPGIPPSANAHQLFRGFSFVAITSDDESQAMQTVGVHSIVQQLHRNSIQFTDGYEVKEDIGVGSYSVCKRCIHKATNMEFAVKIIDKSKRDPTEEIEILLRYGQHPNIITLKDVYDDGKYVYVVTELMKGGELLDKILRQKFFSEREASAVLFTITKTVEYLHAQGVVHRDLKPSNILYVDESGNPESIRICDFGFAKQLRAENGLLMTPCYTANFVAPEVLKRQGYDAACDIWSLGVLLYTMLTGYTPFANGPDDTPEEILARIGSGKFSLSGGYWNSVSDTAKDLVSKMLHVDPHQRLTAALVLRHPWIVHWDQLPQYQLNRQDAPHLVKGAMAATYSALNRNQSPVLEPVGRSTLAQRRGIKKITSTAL
Sequence of Serine/threonine-protein kinase 16 (Homo sapiens) (O75716 whole entry): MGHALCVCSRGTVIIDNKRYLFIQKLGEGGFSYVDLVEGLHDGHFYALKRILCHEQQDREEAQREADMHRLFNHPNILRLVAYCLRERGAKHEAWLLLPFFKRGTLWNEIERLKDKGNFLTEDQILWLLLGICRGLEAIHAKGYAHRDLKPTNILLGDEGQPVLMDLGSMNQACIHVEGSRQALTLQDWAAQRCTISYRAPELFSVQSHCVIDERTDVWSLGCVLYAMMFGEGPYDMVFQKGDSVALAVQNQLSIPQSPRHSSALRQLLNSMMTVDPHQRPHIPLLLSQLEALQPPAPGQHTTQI
Sequence of Ephrin type-A receptor 5 (Homo sapiens) (P54756 whole entry): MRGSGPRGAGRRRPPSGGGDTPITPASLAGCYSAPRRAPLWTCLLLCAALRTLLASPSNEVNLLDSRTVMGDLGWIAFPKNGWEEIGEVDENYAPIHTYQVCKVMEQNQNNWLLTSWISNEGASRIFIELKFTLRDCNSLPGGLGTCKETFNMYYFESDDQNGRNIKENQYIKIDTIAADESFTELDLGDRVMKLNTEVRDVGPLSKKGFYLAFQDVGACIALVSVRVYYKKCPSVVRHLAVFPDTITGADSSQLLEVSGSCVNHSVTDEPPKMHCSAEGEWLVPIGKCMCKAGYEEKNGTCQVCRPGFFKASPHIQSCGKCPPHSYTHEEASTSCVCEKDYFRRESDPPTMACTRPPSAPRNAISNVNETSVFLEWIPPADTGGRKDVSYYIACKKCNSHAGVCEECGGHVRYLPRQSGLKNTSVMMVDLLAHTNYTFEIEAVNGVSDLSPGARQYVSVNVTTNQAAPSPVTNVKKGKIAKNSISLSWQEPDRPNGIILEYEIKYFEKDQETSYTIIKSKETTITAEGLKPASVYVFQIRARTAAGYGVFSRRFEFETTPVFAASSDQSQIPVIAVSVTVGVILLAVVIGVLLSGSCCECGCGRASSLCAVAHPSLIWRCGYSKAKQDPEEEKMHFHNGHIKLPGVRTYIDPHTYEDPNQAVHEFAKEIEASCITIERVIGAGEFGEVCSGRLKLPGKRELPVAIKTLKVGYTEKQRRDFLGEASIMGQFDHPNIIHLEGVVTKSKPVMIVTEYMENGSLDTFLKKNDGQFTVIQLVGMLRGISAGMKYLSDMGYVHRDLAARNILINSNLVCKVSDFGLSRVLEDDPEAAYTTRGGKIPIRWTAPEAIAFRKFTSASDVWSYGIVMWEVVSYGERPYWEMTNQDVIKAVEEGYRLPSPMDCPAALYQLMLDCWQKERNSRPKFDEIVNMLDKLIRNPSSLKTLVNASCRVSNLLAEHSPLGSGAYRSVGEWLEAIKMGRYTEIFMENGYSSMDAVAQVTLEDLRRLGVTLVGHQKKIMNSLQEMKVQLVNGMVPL
Sequence of Phosphatidylinositol 4,5-bisphosphate 3-kinase catalytic subunit alpha isoform (Homo sapiens), P42336 [H1047Y] (P42336 whole entry H1047Y, canonical isoform): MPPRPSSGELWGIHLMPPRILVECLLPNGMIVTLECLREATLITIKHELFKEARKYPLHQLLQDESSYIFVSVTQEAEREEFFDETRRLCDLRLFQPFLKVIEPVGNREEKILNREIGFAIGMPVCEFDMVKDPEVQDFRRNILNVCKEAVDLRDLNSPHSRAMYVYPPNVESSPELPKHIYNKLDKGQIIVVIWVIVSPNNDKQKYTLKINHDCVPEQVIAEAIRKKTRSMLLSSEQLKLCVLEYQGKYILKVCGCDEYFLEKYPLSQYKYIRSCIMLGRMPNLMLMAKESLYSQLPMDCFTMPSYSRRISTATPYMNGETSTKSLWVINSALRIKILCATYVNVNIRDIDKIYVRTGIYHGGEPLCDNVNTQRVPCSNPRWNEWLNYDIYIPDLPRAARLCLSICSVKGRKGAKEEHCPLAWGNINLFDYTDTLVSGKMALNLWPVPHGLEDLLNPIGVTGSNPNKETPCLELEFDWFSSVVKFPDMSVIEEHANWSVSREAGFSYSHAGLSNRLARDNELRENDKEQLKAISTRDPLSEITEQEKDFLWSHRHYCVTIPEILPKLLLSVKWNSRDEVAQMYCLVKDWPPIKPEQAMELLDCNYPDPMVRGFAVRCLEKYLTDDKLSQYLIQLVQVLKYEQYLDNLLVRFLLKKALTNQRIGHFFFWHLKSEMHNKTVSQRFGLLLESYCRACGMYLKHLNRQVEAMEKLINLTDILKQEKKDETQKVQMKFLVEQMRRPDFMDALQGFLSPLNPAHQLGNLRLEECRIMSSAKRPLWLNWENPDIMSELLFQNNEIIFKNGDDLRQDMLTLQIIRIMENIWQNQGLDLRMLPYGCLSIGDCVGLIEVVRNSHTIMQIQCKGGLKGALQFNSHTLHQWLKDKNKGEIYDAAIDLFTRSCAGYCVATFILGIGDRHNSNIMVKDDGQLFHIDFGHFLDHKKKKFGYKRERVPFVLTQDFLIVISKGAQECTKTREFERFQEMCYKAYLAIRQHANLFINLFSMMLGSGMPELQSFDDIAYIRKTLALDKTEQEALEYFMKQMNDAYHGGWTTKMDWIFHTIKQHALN
Sequence of Serine/threonine-protein kinase 32C (Homo sapiens) (Q86UX6 whole entry): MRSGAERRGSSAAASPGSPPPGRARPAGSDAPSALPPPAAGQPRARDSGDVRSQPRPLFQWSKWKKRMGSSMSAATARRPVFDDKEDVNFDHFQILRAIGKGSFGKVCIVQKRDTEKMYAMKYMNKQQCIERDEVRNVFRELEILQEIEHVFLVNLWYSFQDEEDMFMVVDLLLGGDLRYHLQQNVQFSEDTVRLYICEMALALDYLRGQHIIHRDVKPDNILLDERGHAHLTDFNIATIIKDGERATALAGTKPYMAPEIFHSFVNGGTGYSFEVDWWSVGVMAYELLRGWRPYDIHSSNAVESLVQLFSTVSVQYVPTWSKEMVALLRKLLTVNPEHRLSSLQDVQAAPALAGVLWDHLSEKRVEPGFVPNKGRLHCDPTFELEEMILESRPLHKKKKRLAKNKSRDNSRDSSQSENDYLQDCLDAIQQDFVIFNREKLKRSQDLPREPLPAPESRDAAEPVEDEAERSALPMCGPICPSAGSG

CNc1cc(Oc2cc(C(=O)Nc3cc(N4CCN(C)CC4)cc(C(F)(F)F)c3)ccc2C)ncn1
inhibition [1]: 3.1% | inhibition [2]: 3.5% | inhibition [3]: -4.9%

CCN1CCN(Cc2ccc(NC(=O)c3ccc(C)c(/C=C/c4cnc5[nH]ccc5c4OC)c3)cc2C(F)(F)F)CC1
inhibition [4]: 21% | inhibition [5]: 59% | inhibition [6]: 71% | inhibition [7]: 11.5% | inhibition [8]: 5.5% | inhibition [9]: 14.1%

CCN1CCN(Cc2ccc(NC(=O)c3ccc(C)c(Oc4ccnc5[nH]ccc45)c3)cc2C(F)(F)F)CC1
inhibition [10]: 31% | inhibition [11]: inactive | inhibition [12]: 5.6% | percent of control [13]: 0%
